Measured values reported in PMC9030254, “Target Hopping from Protein Kinases to PXR: Identification of Small-Molecule Protein Kinase Inhibitors as Selective Modulators of Pregnane X Receptor from TüKIC Library” (Cells, 2022).
pEC50, pIC50: −log10 of the molar value. Values joined by “and” are separate entries in the source; they are usually repeats but may differ in a detail not shown here. Equal values may be shown once.

Assays:
PXR [1] = target: T1, PXR (Homo sapiens, UniProt O75469); experiment: PXR-dependent CYP3A4 reporter gene assay, agonist mode; format: cell-based; design: expressed in transfected cells; host or cells: H-P cells (HepG2 stably transfected with PXR); details: H-P cells; for activation of CYP3A4 reporter on their own, % of rifampicin activity: 10 µM compound alone, 10 µM rifampicin = 100%; for activation of CYP3A4 reporter on their own, % of rifampicin activity / pEC50: 24 h; for pEC50 / fold induction at 24 h: compound alone; for pEC50: read-out: EC50, PXR activation; for fold induction at 24 h: human, vs DMSO, read-out: maximal effect (Emax), fold induction
T1 sequence (O75469 1-434): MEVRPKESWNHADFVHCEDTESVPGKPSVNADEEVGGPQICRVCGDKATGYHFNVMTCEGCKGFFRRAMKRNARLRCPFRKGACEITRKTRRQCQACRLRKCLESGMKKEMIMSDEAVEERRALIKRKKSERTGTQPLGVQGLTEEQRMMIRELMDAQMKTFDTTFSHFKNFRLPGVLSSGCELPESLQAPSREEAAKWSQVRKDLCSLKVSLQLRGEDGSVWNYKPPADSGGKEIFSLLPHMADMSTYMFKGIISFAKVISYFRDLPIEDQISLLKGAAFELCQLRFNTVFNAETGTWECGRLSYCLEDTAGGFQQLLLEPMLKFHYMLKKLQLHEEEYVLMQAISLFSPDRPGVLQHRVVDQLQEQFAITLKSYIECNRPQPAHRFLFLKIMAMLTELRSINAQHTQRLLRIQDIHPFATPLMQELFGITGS
Source text: (§1) Figure 1 Identification of novel putative PXR ligands from the TüKIC library. (A) Workflow of the in silico screening and structures of the identified candidate ligands. (B) Concentration–response curves of the novel inhibitors for antagonism of PXR activity. (C) Concentration–response curves of the same compounds and 109 for PXR activation. […] Data are expressed as mean ± SD fold induction with respect to the DMSO-treated cells from three independent experiments. IC50 and EC50 values calculated with nonlinear regression using formula with 3 parameters (constraint bottom =1) using GraphPadPrism.
(§2) Supplementary Figure S1. Effects of 56 in silico screened TüKIC compounds (A) alone or (B) in combination […]
(§3) H-P cells were transiently
(§4) Luciferase activities were measured after 24 h treatment. Data is expressed as mean ± SD %. Activation was calculated according to Zhu et al. from three independent experiments with technical triplicates. Fold induction achieved by 10 μM […]
(§5) Green and red dashed lines represent the 100% and 50% activation, respectively.
(§6) (1 picture or pasted object on this page, not shown here)

ABCB1 = experiment: PXR target gene mRNA expression in LS174T cells (RT-qPCR); details: for effect on rifampicin-mediated induction of ABCB1: 10 µM compound + 10 µM rifampicin, 72 h; for expression of ABCB1 mRNA: 10 µM single treatment, 48 h (109) or 72 h (73, 100)
Experimental: In chemical treatments, phenol red-free DMEM was used, and regular FBS was replaced by dextran-coated charcoal-treated FBS. For gene expression analyses, 0.3 × 10^6 LS174T cells were seeded per well of a 12-well plate. The next day, chemical treatment was initiated for 48–72 h, with daily medium change.
Total RNA was prepared from LS174T and HepaRG cells using the NucleoSpin RNA kit (Macherey-Nagel, Düren, Germany). RNA integrity was analyzed by formaldehyde-agarose gel electrophoresis. First strand cDNA was synthesized as described earlier [37]. Relative quantification analyses were conducted with TaqMan RT-PCR utilizing the BioMark HD system and FLEX Six Gene Expression Integrated Fluidic Circuits (Fluidigm, South San Francisco, CA, USA) as described previously [34]. TaqMan gene expression assays were either the commercially available predesigned assays Hs00184500_m1 (ABCB1) and Hs00604506_m1 (CYP3A4) (Thermo Fischer Scientific) or have been described previously: CYP2B6 [31] and 18S rRNA [39]. Data were analyzed as described previously [37]. Gene expression levels were normalized to respective 18S rRNA levels.

[2] = target: T2, PXR interaction with corepressor SMRT (Homo sapiens, UniProt O75469); experiment: Mammalian two-hybrid corepressor interaction assay; format: cell-based; details: HepG2, 10 µM
T2 construct: VP16-PXR LBD(108–434); expressed in transfected cells; host or cells: HepG2
T2 sequence (O75469 108-434): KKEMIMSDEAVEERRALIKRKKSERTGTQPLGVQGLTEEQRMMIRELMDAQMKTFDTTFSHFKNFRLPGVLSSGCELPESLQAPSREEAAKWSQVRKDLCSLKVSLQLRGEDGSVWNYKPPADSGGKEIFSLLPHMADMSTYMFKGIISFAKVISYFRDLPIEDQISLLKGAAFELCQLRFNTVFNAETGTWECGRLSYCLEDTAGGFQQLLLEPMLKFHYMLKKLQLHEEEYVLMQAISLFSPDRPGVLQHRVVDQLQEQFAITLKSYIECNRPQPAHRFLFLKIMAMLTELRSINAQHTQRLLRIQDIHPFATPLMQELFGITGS
T2 sequence (P19793 1-462 partner): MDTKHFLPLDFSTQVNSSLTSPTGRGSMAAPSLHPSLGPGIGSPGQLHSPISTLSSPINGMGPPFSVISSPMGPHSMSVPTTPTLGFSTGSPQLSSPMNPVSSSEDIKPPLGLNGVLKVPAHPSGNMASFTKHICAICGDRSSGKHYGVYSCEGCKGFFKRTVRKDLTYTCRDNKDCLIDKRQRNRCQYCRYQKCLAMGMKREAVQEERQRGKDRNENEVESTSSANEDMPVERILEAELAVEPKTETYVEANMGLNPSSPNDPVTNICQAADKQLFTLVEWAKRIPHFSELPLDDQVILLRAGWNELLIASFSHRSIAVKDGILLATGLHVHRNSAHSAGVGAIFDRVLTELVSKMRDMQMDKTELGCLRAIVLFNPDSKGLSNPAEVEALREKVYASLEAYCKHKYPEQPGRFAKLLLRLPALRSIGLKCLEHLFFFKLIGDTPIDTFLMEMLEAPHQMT
Experimental: In mammalian two-hybrid corepressor/coactivator interaction assays, per well 0.24 µg pGL4-G5, 0.01 µg pGL4.75[hRluc/CMV], 0.03 µg expression plasmid encoding VP16-AD/PXR LBD fusion, and 0.03 µg expression plasmids encoding GAL4-DBD/SRC1-RID or GAL4-DBD/SMRT-RID fusions, respectively, were used. For the SMRT corepressor interaction assay, additionally 0.015 µg of RXRα expression plasmid was included.

PXR [3] = target: T1, PXR; experiment: PXR-dependent CYP3A4 reporter gene assay, antagonist mode (cotreatment with rifampicin); format: cell-based; design: expressed in transfected cells; host or cells: H-P cells (HepG2 stably transfected with PXR); details: for pIC50: read-out: IC50, inhibition of rifampicin-induced PXR activation
Source text: as §1, §2, §3, §4, §5, §6

SMILES | activation of CYP3A4 reporter on their own, % of rifampicin activity (PXR [1]) | pEC50 (PXR [1]) | fold induction at 24 h (PXR [1]) | effect on rifampicin-mediated induction of ABCB1 (ABCB1) | expression of ABCB1 mRNA (ABCB1) | effect on constitutive interaction of PXR with corepressor SMRT [2] | pIC50 (PXR [3]) | inhibition of rifampicin-mediated induction of CYP3A4 reporter activity (PXR [3]; H-P cells, 10 µM compound + 10 µM rifampicin, 24 h)
O=C(Cc1ccccc1)Nc1ccc(F)c(Nc2ccc3c(c2)CCCCC3=O)c1 [Compound 100] | about 10% | 6.82 | ~2 | suppressed its rifampicin-mediated induction | not induced | impaired the constitutive interaction of PXR with the corepressor | 5.55 | 
Cc1ccc(NC(=O)Cc2ccccc2)cc1Nc1ccc2c(c1)CCCCC2=O [Compound 73] | about 10% | 6.39 | ~2 | suppressed its rifampicin-mediated induction | not induced | impaired the constitutive interaction of PXR with the corepressor | 5.08 | 
O=C(Nc1ccc(F)c(Nc2ccc3c(c2)CCCCC3=O)c1)c1cccc(F)c1 [Compound 109] |  | 4.36 and 4.53 | 27 |  | induced to a lesser extent than by rifampicin | impaired the constitutive interaction of PXR with the corepressor |  | does not inhibit PXR
